In patent publication US9434693B2, “Substituted pyrazoles as N-type calcium channel blockers” (Janssen Pharmaceutica NV, priority 2012, dated 2016):

Biological target: N-type calcium channel (α1B (Cav2.2), β3 and α2δ subunits) in stable HEK cell line (Homo sapiens (Human), UniProt Q00975)
Assay: Functional assay (FDSS calcium mobilization): antagonism of N-type calcium channel
Type: cell-based
Conditions: for IC50: KCl (50 mM) depolarization, six-point concentration-response; for inhibition at 0.33 µM: HEK293, FDSS, 0.33 μM compound
Method: A stable cell line (HEK parent) co-expressing the α1B (Cav2.2), β3 and α2δ subunits of the N-type calcium channel subunits was used. These cells were routinely grown as monolayers in low glucose-containing Dulbecco's Modified Eagle Medium supplemented with 10% FBS, 2 mM L-glutamine, 100 I.U./mL penicillin, 100 μg/mL streptomycin, 400 μg/mL G418 and 200 μg/mL Zeocin (split ratio=1:5). Cells were maintained in 5% CO2 at 37° C. Compounds of Formula (I) were prepared as 10 mM stocks in DMSO from neat compound, if available. Otherwise, the 5 or 10 mM DMSO stock solutions provided in-house were used.
Calcium mobilization responses to KCl depolarization were evaluated by measuring the intensity of calcium-mediated fluorescent signal in the presence of BD Calcium Assay Dye (BD Biosciences, Franklin Lakes, N.J., U.S.A.), utilizing a Functional Drug Screening System (FDSS) by Hamamatsu Corporation (Bridgewater, N.J. U.S.A.).
Twenty-four hr prior to assay, cells were seeded in clear-base poly-D-lysine-coated 384-well plates (BD Biosciences) at a density of 5,000 cells per well in culture medium and grown overnight in 5% CO2 at 37° C. On the day of assay, growth media were removed, and cells were loaded with BD calcium assay dye (BD Biosciences) for 35 min at 37° C. under 5% CO2 and then for 25 min at room temp. Utilizing the FDSS, cells were exposed to representative compounds of Formula (I) at varying concentrations, and intracellular calcium was measured for 5 min prior to the addition of 50 mM KCl for an additional 3 min of measurement.
IC50 values for representative compounds of Formula (I) were determined from six-point concentration-response experiments and represent the concentration of said compound required to inhibit 50% of the maximal response. Maximal fluorescence intensity (FI) achieved upon addition of 50 mM KCl was exported from the FDSS software and further analyzed using GraphPad Prism 3.02 (Graph Pad Software Inc., San Diego, Calif., U.S.A.). Data were normalized to the maximum average counts from quadruplicate wells for each condition in the presence of 50 mM KCl and to the minimum average counts in the presence of buffer. Theoretical curves were generated using nonlinear regression curve-fitting analysis of either sigmoidal concentration-response or sigmoidal concentration-response (variable slope), and the IC50 values with the best-fit curve determined by GraphPad Prism were reported.

Sequence of N-type calcium channel (α1B (Cav2.2), β3 and α2δ subunits) in stable HEK cell line (Q00975 whole entry): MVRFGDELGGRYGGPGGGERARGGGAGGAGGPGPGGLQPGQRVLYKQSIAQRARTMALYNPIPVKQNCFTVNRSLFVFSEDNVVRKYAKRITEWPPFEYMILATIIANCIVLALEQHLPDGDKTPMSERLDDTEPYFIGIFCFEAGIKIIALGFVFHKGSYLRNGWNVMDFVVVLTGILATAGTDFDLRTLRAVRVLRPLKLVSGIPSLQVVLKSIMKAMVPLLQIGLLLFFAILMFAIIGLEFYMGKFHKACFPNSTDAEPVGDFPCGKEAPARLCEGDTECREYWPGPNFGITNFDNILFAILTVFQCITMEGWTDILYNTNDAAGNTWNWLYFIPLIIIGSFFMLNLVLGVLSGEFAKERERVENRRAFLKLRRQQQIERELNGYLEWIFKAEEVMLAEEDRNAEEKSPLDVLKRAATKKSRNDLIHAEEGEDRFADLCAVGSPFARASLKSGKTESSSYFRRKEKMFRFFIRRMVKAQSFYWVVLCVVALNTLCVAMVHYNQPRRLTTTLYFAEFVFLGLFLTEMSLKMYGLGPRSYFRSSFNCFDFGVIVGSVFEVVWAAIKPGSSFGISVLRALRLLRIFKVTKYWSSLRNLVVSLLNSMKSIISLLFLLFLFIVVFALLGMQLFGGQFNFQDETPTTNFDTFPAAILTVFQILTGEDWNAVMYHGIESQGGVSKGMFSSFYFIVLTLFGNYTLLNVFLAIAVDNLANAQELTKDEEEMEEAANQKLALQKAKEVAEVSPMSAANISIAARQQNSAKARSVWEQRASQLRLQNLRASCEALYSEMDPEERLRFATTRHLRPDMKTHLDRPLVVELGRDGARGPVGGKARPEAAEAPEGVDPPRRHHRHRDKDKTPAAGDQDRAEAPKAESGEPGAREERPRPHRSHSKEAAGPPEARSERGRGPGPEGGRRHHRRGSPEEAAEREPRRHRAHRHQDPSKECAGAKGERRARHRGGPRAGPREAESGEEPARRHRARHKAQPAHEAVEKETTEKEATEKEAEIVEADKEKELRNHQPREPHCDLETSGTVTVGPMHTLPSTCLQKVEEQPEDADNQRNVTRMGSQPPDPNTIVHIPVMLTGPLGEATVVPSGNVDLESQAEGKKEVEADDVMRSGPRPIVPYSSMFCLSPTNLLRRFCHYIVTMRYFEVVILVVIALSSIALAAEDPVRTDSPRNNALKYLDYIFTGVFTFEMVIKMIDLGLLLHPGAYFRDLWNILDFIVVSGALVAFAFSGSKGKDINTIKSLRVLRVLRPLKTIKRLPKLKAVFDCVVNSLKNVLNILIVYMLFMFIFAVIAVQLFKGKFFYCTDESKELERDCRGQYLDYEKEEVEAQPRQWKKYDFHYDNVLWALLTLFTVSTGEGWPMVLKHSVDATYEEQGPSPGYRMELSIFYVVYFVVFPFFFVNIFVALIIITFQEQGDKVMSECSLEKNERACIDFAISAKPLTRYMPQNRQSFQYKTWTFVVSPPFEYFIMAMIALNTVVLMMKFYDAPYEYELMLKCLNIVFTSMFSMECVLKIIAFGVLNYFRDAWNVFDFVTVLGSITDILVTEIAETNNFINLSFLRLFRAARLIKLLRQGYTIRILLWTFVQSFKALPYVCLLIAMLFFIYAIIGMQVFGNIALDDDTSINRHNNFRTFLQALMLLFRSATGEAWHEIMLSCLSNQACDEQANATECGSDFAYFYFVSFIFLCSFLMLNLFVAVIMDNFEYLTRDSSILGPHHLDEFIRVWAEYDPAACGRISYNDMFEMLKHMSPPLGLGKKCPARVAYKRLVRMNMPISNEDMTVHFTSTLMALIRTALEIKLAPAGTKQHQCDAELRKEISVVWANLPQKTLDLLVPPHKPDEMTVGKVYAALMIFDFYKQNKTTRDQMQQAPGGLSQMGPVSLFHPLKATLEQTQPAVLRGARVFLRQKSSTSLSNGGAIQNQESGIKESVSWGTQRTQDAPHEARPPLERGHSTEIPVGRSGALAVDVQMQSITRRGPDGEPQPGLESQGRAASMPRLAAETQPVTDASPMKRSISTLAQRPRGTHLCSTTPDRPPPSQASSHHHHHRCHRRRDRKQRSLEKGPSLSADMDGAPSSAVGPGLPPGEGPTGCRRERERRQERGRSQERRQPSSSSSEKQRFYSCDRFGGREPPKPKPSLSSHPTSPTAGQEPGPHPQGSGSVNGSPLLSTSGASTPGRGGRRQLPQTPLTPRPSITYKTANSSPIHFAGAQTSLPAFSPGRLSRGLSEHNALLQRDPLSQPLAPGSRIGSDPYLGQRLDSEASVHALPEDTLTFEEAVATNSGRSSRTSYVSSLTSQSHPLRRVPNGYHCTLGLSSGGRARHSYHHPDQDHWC
Sequence of N-type calcium channel (α1B (Cav2.2), β3 and α2δ subunits) in stable HEK cell line (P54284 whole entry partner): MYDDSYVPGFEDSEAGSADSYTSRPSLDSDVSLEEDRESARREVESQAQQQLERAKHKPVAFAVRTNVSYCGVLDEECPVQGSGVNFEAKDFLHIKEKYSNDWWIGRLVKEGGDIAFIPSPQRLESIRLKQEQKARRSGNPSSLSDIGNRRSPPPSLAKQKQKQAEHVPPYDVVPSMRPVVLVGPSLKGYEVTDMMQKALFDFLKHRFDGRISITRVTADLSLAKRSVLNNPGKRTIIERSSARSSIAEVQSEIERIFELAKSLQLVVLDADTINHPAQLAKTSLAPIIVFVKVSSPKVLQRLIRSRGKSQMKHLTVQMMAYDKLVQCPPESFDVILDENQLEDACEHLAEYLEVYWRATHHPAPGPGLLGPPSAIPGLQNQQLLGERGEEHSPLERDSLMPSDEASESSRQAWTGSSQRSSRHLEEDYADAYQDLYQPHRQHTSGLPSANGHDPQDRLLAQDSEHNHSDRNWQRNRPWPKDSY
Sequence of N-type calcium channel (α1B (Cav2.2), β3 and α2δ subunits) in stable HEK cell line (P54289 25-1103 partner): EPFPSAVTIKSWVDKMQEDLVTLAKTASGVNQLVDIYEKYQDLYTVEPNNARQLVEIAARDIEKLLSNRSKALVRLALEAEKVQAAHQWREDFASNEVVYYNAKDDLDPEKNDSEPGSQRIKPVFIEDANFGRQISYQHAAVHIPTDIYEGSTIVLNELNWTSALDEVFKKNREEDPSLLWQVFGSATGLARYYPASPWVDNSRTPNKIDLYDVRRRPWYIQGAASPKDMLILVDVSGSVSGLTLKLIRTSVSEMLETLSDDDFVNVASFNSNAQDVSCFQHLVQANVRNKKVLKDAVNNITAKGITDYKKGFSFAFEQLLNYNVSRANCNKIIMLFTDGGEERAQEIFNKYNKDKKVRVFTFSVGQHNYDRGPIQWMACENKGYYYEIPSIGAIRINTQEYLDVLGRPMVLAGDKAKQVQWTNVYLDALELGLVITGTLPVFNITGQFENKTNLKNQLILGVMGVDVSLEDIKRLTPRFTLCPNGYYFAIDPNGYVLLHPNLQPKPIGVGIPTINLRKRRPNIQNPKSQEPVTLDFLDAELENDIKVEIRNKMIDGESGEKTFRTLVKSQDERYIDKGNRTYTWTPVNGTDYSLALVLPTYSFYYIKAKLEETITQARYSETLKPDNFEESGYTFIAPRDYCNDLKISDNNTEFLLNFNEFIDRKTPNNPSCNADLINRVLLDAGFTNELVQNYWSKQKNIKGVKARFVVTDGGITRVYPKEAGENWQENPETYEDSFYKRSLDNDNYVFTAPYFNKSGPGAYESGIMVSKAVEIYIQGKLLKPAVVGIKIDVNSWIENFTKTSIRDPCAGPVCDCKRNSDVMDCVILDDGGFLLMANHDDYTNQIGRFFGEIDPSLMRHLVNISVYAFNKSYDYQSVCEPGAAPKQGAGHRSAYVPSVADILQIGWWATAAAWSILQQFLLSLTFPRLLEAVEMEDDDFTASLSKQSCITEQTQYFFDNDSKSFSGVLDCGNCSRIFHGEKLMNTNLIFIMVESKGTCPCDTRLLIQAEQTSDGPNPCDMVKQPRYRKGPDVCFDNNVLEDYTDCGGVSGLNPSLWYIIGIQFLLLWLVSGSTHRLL

Row | Compound | IC50 | inhibition at 0.33 µM
1 | CCc1ccccc1-n1nc(OC2CCN(C(=O)OC(C)(C)C)CC2)cc1-c1ccc(Cl)cc1 [Compound 18, tert-Butyl 4-{[5-(4-chlorophenyl)-1-(2-ethylphenyl)-1H-pyrazol-3-yl]oxy}piperidine-1-carboxylate] | 50 nM | 
2 | COc1ccccc1-n1nc(OC2CCSCC2)cc1-c1ccc(Cl)cc1 [Compound 7, 5-(4-Chlorophenyl)-1-(2-methoxyphenyl)-3-(tetrahydro-2H-thiopyran-4-yloxy)-1H-pyrazole] | 28 nM | 
3 | COc1ccccc1-n1nc(OC2CCC(F)(F)CC2)cc1-c1ccc(Cl)cc1 [Compound 16, 5-(4-Chlorophenyl)-3-[(4,4-difluorocyclohexyl)oxy]-1-(2-methoxyphenyl)-1H-pyrazole] | 41 nM | 
4 | COc1ccccc1-n1nc(OC2CC(C)(C)SC(C)(C)C2)cc1-c1ccc(C#N)cc1 [Compound 44, 4-{1-(2-Methoxyphenyl)-3-[(2,2,6,6-tetramethyltetrahydro-2H-thiopyran-4-yl)oxy]-1H-pyrazol-5-yl}benzonitrile] | 12 nM | 87%
5 | CC(C)Oc1ccccc1-n1nc(OC2CCN(S(=O)(=O)C(C)C)CC2)cc1-c1ccc(Cl)cc1 [Compound 28, 4-({5-(4-Chlorophenyl)-1-[2-(1-methylethoxy)phenyl]-1H-pyrazol-3-yl}oxy)-1-[(1-methylethyl)sulfonyl]piperidine] | 7 nM | 96%
6 | COc1ccccc1-n1nc(OC2CC(C)(C)C(=O)C(C)(C)C2)cc1-c1ccc(Cl)cc1 [Compound 41, 4-{[5-(4-Chlorophenyl)-1-(2-methoxyphenyl)-1H-pyrazol-3-yl]oxy}-2,2,6,6-tetramethylcyclohexanone] |  | 92%
7 | CCc1ccccc1-n1nc(OC2CCN(S(C)(=O)=O)CC2)cc1-c1ccc(Cl)cc1 [Compound 19, 4-{[5-(4-Chlorophenyl)-1-(2-ethylphenyl)-1H-pyrazol-3-yl]oxy}-1-(methylsulfonyl)piperidine] | 98.5 nM | 
8 | COc1ccccc1-n1nc(OC2CC(C)(C)S(=O)(=O)C(C)(C)C2)cc1-c1ccc(Cl)cc1 [Compound 37, 5-(4-Chlorophenyl)-1-(2-methoxyphenyl)-3-[(2,2,6,6-tetramethyl-1,1-dioxidotetrahydro-2H-thiopyran-4-yl)oxy]-1H-pyrazole] | 1.9 nM | 98%
9 | COc1ccccc1-n1nc(OC2CCN(C(C)=O)CC2)cc1-c1ccc(Cl)cc1 [Compound 3, 1-Acetyl-4-{[5-(4-chlorophenyl)-1-(2-methoxyphenyl)-1H-pyrazol-3-yl]oxy}piperidine] | 26 nM | 
10 | COc1ccccc1-n1nc(OCC2C(C)(C)OC2(C)C)cc1-c1ccc(Cl)cc1 [Compound 40] | 3.1 nM | 95%
11 | COc1ccccc1-n1nc(OC2CCN(S(=O)(=O)C(F)(F)F)CC2)cc1-c1ccc(Cl)cc1 [Compound 14, 4-{[5-(4-Chlorophenyl)-1-(2-methoxyphenyl)-1H-pyrazol-3-yl]oxy}-1-[(trifluoromethyl)sulfonyl]piperidine] | 24 nM | 
12 | COc1ccccc1-n1nc(OC2CCS(=O)(=O)CC2)cc1-c1ccc(Cl)cc1 [Compound 10, 5-(4-Chlorophenyl)-3-[(1,1-dioxidotetrahydro-2H-thiopyran-4-yl)oxy]-1-(2-methoxyphenyl)-1H-pyrazole] | 30 nM | 
13 | COc1ccc(-c2cc(OC3CC(C)(C)SC(C)(C)C3)nn2-c2ccccc2OC)cc1 [Compound 32, 1-(2-Methoxyphenyl)-5-(4-methoxyphenyl)-3-[(2,2,6,6-tetramethyltetrahydro-2H-thiopyran-4-yl)oxy]-1H-pyrazole] | 6 nM | 93%
14 | COc1ccccc1-n1nc(OC2CCN(C(=O)OC(C)(C)C)CC2)cc1-c1ccc(Cl)cc1 [Compound 1, tert-Butyl 4-{[5-(4-chlorophenyl)-1-(2-methoxyphenyl)-1H-pyrazol-3-yl]oxy}piperidine-1-carboxylate] | 30 nM | 
